The source made the active and inactive calls. The rule behind the calls is not given here.
Assays:
HepG2 = experiment: Cytotoxicity against human HepG2 cells incubated for 24 hrs by MTT assay; format: functional
[1] = Cytotoxicity against African green monkey Vero cells incubated for 24 hrs by MTT assay; format: toxicity, cell-based; conditions: chlorocebus sabaeus
Plasmodium falciparum = experiment: Induction of morphological changes in chloroquine-resistant Plasmodium falciparum W2 trophozoites assessed as degraded cytoplasm by TEM analysis; format: functional, organism-based
[2] = Acute toxicity in Albino Swiss mouse assessed as signs of toxicity at 300 mg/kg, po administered as single dose measured after 14 days; format: organism-based; conditions: in vivo, 336 h, time 14 day
[3] = Acute toxicity in Albino Swiss mouse assessed as behavioural toxicity at 300 mg/kg, po administered as single dose measured after 14 days; format: organism-based; conditions: in vivo, 336 h, time 14 day
[4] = Acute toxicity in Albino Swiss mouse assessed as change in motor function at 300 mg/kg, po administered as single dose measured after 14 days; format: organism-based; conditions: in vivo, 336 h, time 14 day
[5] = Acute toxicity in Albino Swiss mouse assessed as change in sensory function at 300 mg/kg, po administered as single dose measured after 14 days; format: organism-based; conditions: in vivo, 336 h, time 14 day
[6] = Acute toxicity in Albino Swiss mouse assessed as signs of pallor at 300 mg/kg, po administered as single dose measured after 14 days; format: organism-based; conditions: in vivo, 336 h, time 14 day
[7] = Acute toxicity in Albino Swiss mouse assessed as signs of cyanosis at 300 mg/kg, po administered as single dose measured after 14 days; format: organism-based; conditions: in vivo, 336 h, time 14 day
[8] = Acute toxicity in Albino Swiss mouse assessed as signs of hyperemia at 300 mg/kg, po administered as single dose measured after 14 days; format: organism-based; conditions: in vivo, 336 h, time 14 day
[9] = Acute toxicity in Albino Swiss mouse assessed as change in urination volume at 300 mg/kg, po administered as single dose measured after 14 days; format: organism-based; conditions: in vivo, 336 h, time 14 day
[10] = Acute toxicity in Albino Swiss mouse assessed as change in urine color at 300 mg/kg, po administered as single dose measured after 14 days; format: organism-based; conditions: in vivo, 336 h, time 14 day
[11] = Acute toxicity in Albino Swiss mouse assessed as change in defecation at 300 mg/kg, po administered as single dose measured after 14 days; format: organism-based; conditions: in vivo, 336 h, time 14 day
[12] = Acute toxicity in Albino Swiss mouse assessed as change in diarrhea at 300 mg/kg, po administered as single dose measured after 14 days; format: organism-based; conditions: in vivo, 336 h, time 14 day
[13] = Acute toxicity in Albino Swiss mouse assessed as contortions at 300 mg/kg, po administered as single dose measured after 14 days; format: organism-based; conditions: in vivo, 336 h, time 14 day
[14] = Acute toxicity in Albino Swiss mouse assessed as escape reaction at 300 mg/kg, po administered as single dose measured after 14 days; format: organism-based; conditions: in vivo, 336 h, time 14 day
[15] = Acute toxicity in Albino Swiss mouse assessed as aggressiveness at 300 mg/kg, po administered as single dose measured after 14 days; format: organism-based; conditions: in vivo, 336 h, time 14 day
[16] = Acute toxicity in Albino Swiss mouse assessed as change in relative weight of liver at 300 mg/kg, po administered as single dose measured after 14 days; format: organism-based; conditions: in vivo, 336 h, time 14 day
[17] = Acute toxicity in Albino Swiss mouse assessed as change in relative weight of kidney at 300 mg/kg, po administered as single dose measured after 14 days; format: organism-based; conditions: in vivo, 336 h, time 14 day
[18] = Acute toxicity in Albino Swiss mouse assessed as change in relative weight of spleen at 300 mg/kg, po administered as single dose measured after 14 days; format: organism-based; conditions: in vivo, 336 h, time 14 day
Plasmodium berghei [19] = experiment: Antimalarial activity against Plasmodium berghei ANKA infected in Albino Swiss mouse assessed as half-survival time at 15 mg/kg, po administered for 4 consecutive days measured for 30 days (reference value: 16 day); format: functional; conditions: time 30 day
Plasmodium berghei [20] = experiment: Antimalarial activity against Plasmodium berghei ANKA infected in Albino Swiss mouse assessed as half-survival time at 30 mg/kg, po administered for 4 consecutive days measured for 30 days (reference value: 16 day); format: functional; conditions: time 30 day
Plasmodium berghei [21] = experiment: Antimalarial activity against Plasmodium berghei ANKA infected in Albino Swiss mouse assessed as reduction in parasitemia at 30 mg/kg, po administered for 4 consecutive days measured after day 5 relative to control; format: functional; parameters: scale not given: the % may be the effect or the level left; conditions: time 5 day
Plasmodium berghei [22] = experiment: Antimalarial activity against Plasmodium berghei ANKA infected in Albino Swiss mouse assessed as reduction in parasitemia at 15 mg/kg, po administered for 4 consecutive days measured after day 5 relative to control; format: functional; parameters: scale not given: the % may be the effect or the level left; conditions: time 5 day
Plasmodium berghei [23] = experiment: Antimalarial activity against Plasmodium berghei ANKA infected in Albino Swiss mouse assessed as reduction in parasitemia at 30 mg/kg, po administered for 4 consecutive days measured after day 7 relative to control; format: functional; parameters: scale not given: the % may be the effect or the level left; conditions: time 7 day
Plasmodium berghei [24] = experiment: Antimalarial activity against Plasmodium berghei ANKA infected in Albino Swiss mouse assessed as reduction in parasitemia at 15 mg/kg, po administered for 4 consecutive days measured after day 7 relative to control; format: functional; parameters: scale not given: the % may be the effect or the level left; conditions: time 7 day
[25] = Toxicity in Albino Swiss mouse infected with Plasmodium berghei ANKA assessed as mortality rate at 15 to 30 mg/kg, po administered for 4 consecutive days measured for 14 days relative to control; format: organism-based; conditions: in vivo, dose 15-30 mg/kg, time 14 day, read-out: Activity

## CCN(CC)CCCC(C)Nc1ccnc2cc(Cl)ccc12 (configuration not stated) [CHLOROQUINE]
HepG2
  CC50: > 200 µM
[1]
  CC50 at 24 h: 35.8 µM
Plasmodium falciparum
  Activity: Active
[2]
  Activity: Non-Toxic
[3]
  Activity: Non-Toxic
[4]
  Activity: Non-Toxic
[5]
  Activity: Non-Toxic
[6]
  Activity: Non-Toxic
[7]
  Activity: Non-Toxic
[8]
  Activity: Non-Toxic
[9]
  Activity: Non-Toxic
[10]
  Activity: Non-Toxic
[11]
  Activity: Non-Toxic
[12]
  Activity: Non-Toxic
[13]
  Activity: Non-Toxic
[14]
  Activity: Non-Toxic
[15]
  Activity: Non-Toxic
[16]
  Activity: Non-Toxic
[17]
  Activity: Non-Toxic
[18]
  Activity: Non-Toxic
Plasmodium berghei [19]
  Survival: 26 days
Plasmodium berghei [20]
  Survival: 26 days
Plasmodium berghei [21]
  Activity: 99%
Plasmodium berghei [22]
  Activity: 95%
Plasmodium berghei [23]
  Activity: 98%
Plasmodium berghei [24]
  Activity: 92%
[25]
  mortality at 336 h: 20%

— ChEMBL document CHEMBL5321233, “Biological activity of 1,2,3-triazole-2-amino-1,4-naphthoquinone derivatives and their evaluation as therapeutic strategy for malaria control” (Eur J Med Chem, 2023)
